Experimental data taken from US10106556B2, “Heterocyclic compound” (TAKEDA PHARMACEUTICAL COMPANY LIMITED, priority 2015, dated 2018).

Target: T1, His-hMAGL (recombinant polyhistidine tagged human MAGL protein) (Homo sapiens, UniProt Q99685)
T1 construct: made in house; host or cells: E. coli BL21(DE3)
T1 sequence (Q99685 1-303): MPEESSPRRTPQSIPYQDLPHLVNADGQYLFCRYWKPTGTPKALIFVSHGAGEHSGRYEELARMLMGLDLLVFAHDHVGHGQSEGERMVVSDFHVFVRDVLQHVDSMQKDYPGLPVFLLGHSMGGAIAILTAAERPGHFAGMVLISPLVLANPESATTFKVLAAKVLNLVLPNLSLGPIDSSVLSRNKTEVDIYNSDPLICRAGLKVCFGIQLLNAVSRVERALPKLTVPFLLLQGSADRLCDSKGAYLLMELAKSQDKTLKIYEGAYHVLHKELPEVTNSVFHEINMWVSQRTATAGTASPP
Test: Measurement of MAGL inhibitory activity (arachidonic acid production from 2-arachidonylglycerol, RapidFire-mass spectrometry)
Assay type: biochemical
Settings: MAGL inhibitory rate at 10 μM test compound, 60 min preincubation with His-hMAGL, 2-arachidonylglycerol substrate, 10 min reaction at room temperature
Summary of the method: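 Inhibition (%) was derived from arachidonic acid levels relative to enzyme-free and compound-free groups. Product was measured by online C4 solid-phase extraction and triple-quadrupole MS in negative SRM mode, corrected by arachidonic acid-d8 (3 μM in the acetonitrile added). Substrate was 2-arachidonylglycerol; enzyme was His-tagged recombinant human MAGL.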

| inhibition at 10 µM [%] | % inhibition (10 μM) [%] | Structure (SMILES) |
| --- | --- | --- |
| 102 |  | Cc1cc(C)c(OCC2CN(C(=O)c3cc4c(cc3F)OCC(=O)N4)C2)cn1 [Example 142, 6-((3-(((4,6-dimethylpyridin-3-yl)oxy)methyl)azetidin-1-yl)carbonyl)-7-fluoro-2H-1,4-benzoxazin-3(4H)-one] |
| 90 |  | O=C1COc2ccc(C(=O)N3CCC(COc4ccc(Cl)nc4)CC3)cc2N1 [Example 44, 6-((4-(((6-chloropyridin-3-yl)oxy)methyl)piperidin-1-yl)carbonyl)-2H-1,4-benzoxazin-3(4H)-one] |
| 104 |  | O=C1COc2cc(F)c(C(=O)N3CC(COc4ccc(Cl)cc4-c4ccncc4)C3)cc2N1 [Example 206, 6-((3-((4-chloro-2-(pyridin-4-yl)phenoxy)methyl)azetidin-1-yl)carbonyl)-7-fluoro-2H-1,4-benzoxazin-3(4H)-one] |
| 98 |  | O=C1COc2cc(F)c(C(=O)N3CC(COc4ccc5cnccc5c4)C3)cc2N1 [Example 173, 7-fluoro-6-((3-((isoquinolin-6-yloxy)methyl)azetidin-1-yl)carbonyl)-2H-1,4-benzoxazin-3(4H)-one] |
| 100 |  | Cc1cc(C)c(OCC2CCN(C(=O)c3ccc4c(c3)NC(=O)CO4)CC2)cn1 [Example 39] |
| 102 |  | O=C1COc2cc(Cl)c(C(=O)N3CC(COc4ccc(F)cc4Cl)C3)cc2N1 [Example 87, 7-chloro-6-((3-((2-chloro-4-fluorophenoxy)methyl)azetidin-1-yl)carbonyl)-2H-1,4-benzoxazin-3(4H)-one] |
| 95 |  | O=C1COc2cc(F)c(C(=O)N3CC(COCc4ccccc4)C3)cc2N1 [Example 271, 6-((3-((benzyloxy)methyl)azetidin-1-yl)carbonyl)-7-fluoro-2H-1,4-benzoxazin-3(4H)-one] |
| 100 |  | O=C1COc2cc(F)c(C(=O)N3CC(COc4ccc(Cl)cc4-c4cccnc4Cl)C3)cc2N1 [Example 198, 6-((3-((4-chloro-2-(2-chloropyridin-3-yl)phenoxy)methyl)azetidin-1-yl)carbonyl)-7-fluoro-2H-1,4-benzoxazin-3(4H)-one] |
| 98 |  | Cc1nc2c(OCC3CCN(C(=O)c4cc5c(cc4F)OCC(=O)N5)CC3)cccc2s1 [Example 187, 7-fluoro-6-((4-(((2-methyl-1,3-benzothiazol-4-yl)oxy)methyl)piperidin-1-yl)carbonyl)-2H-1,4-benzoxazin-3(4H)-one] |
| 100 |  | COc1cc2c(cc1C(=O)N1CCC(COc3ccc(F)cc3Cl)CC1)NC(=O)CO2 [Example 97, 6-((4-((2-chloro-4-fluorophenoxy)methyl)piperidin-1-yl)carbonyl)-7-methoxy-2H-1,4-benzoxazin-3(4H)-one] |
| 100 |  | O=C1COc2cc(F)c(C(=O)N3CC(COc4ccccc4)C3)cc2N1 [Example 140, 7-fluoro-6-((3-(phenoxymethyl)azetidin-1-yl)carbonyl)-2H-1,4-benzoxazin-3(4H)-one] |
| 102 |  | Cc1ccc(OCC2CN(C(=O)c3cc4c(cc3F)OCC(=O)N4)C2)c(F)c1 [Example 164, 7-fluoro-6-((3-((2-fluoro-4-methylphenoxy)methyl)azetidin-1-yl)carbonyl)-2H-1,4-benzoxazin-3(4H)-one] |
| 99 |  | N#Cc1cc(Cl)ccc1OCC1CCN(C(=O)c2ccc3c(c2)NC(=O)CO3)CC1 [Example 33, 5-chloro-2-((1-((3-oxo-3,4-dihydro-2H-1,4-benzoxazin-6-yl)carbonyl)piperidin-4-yl)methoxy)benzonitrile] |
| 99 |  | O=C1COc2cc(F)c(C(=O)N3CCC(COc4cccc5ccnn45)CC3)cc2N1 [Example 275, 7-fluoro-6-((4-((pyrazolo[1,5-a]pyridin-7-yloxy)methyl)piperidin-1-yl)carbonyl)-2H-1,4-benzoxazin-3(4H)-one] |
| 103 |  | O=C1COc2cc(F)c(C(=O)N3CC(OCc4cccc(C(F)F)c4)C3)cc2N1 [Example 339] |
| 99 |  | O=C1COc2ncc(C(=O)N3CCC(COc4cccc(Cl)c4)CC3)cc2N1 [Example 13, 7-((4-((3-chlorophenoxy)methyl)piperidin-1-yl)carbonyl)-1H-pyrido[2,3-b][1,4]oxazin-2(3H)-one] |
|  | 103 | CC(Oc1ccc(F)c(F)c1)C1CN(C(=O)c2cc3c(cc2F)OCC(=O)N3)C1 (stereo not drawn) [Example 313, 6-((3-(1-(3,4-difluorophenoxy)ethyl)azetidin-1-yl)carbonyl)-7-fluoro-2H-1,4-benzoxazin-3(4H)-one] |

| inhibition at 10 µM [%] | % inhibition (10 μM) [%] | Structure (SMILES) |
| --- | --- | --- |
| 86 |  | O=C1COc2cc(F)c(C(=O)N3CCC(COC4CCOCC4)CC3)cc2N1 [Example 83, 7-fluoro-6-((4-((tetrahydro-2H-pyran-4-yloxy)methyl)piperidin-1-yl)carbonyl)-2H-1,4-benzoxazin-3(4H)-one] |
| 99 |  | O=C1COc2cc(F)c(C(=O)N3CC(COc4cccc(Oc5ccccc5)c4)C3)cc2N1 [Example 129, 7-fluoro-6-((3-((3-phenoxyphenoxy)methyl)azetidin-1-yl)carbonyl)-2H-1,4-benzoxazin-3(4H)-one] |
| 85 |  | O=C1COc2cc(F)c(C(=O)N3CC(COCC4CC4)C3)cc2N1 [Example 225, 6-((3-((cyclopropylmethoxy)methyl)azetidin-1-yl)carbonyl)-7-fluoro-2H-1,4-benzoxazin-3(4H)-one] |
| 101 |  | O=C1COc2ccc(C(=O)N3CCC(COc4ccc(F)cc4Cl)CC3)cc2N1 [Example 26, 6-((4-((2-chloro-4-fluorophenoxy)methyl)piperidin-1-yl)carbonyl)-2H-1,4-benzoxazin-3 (4H)-one] |
| 93 |  | O=C1COc2cc(F)c(C(=O)N3CC(COc4ccc(Oc5ccccc5)cc4)C3)cc2N1 [Example 128, 7-fluoro-6-((3-((4-phenoxyphenoxy)methyl)azetidin-1-yl)carbonyl)-2H-1,4-benzoxazin-3(4H)-one] |
| 100 |  | Cc1nn(C)c(C)c1-c1ccc(OCC2CN(C(=O)c3cc4c(cc3F)OCC(=O)N4)C2)c(F)c1 [Example 251, 7-fluoro-6-((3-((2-fluoro-4-(1,3,5-trimethyl-1H-pyrazol-4-yl)phenoxy)methyl)azetidin-1-yl)carbonyl)-2H-1,4-benzoxazin-3(4H)-one] |
| 103 |  | Cc1ccc(OCC2CN(C(=O)c3cc4c(cc3F)OCC(=O)N4)C2)c(C)c1 [Example 165, 6-((3-((2,4-dimethylphenoxy)methyl)azetidin-1-yl)carbonyl)-7-fluoro-2H-1,4-benzoxazin-3(4H)-one] |
| 99 |  | Cc1c(-c2cc(Cl)ccc2OCC2CN(C(=O)c3cc4c(cc3F)OCC(=O)N4)C2)cnn1C [Example 266, 6-((3-((4-chloro-2-(1,5-dimethyl-1H-pyrazol-4-yl)phenoxy)methyl)azetidin-1-yl)carbonyl)-7-fluoro-2H-1,4-benzoxazin-3(4H)-one] |
| 99 |  | O=C1COc2cc(F)c(C(=O)N3CC(COC4CCC(F)(F)CC4)C3)cc2N1 [Example 282, 6-((3-(((4,4-difluorocyclohexyl)oxy)methyl)azetidin-1-yl)carbonyl)-7-fluoro-2H-1,4-benzoxazin-3(4H)-one] |
|  | 103 | CC(Oc1cccc(F)c1F)C1CN(C(=O)c2cc3c(cc2F)OCC(=O)N3)C1 (stereo not drawn) [Example 311, 6-((3-(1-(2,3-difluorophenoxy)ethyl)azetidin-1-yl)carbonyl)-7-fluoro-2H-1,4-benzoxazin-3(4H)-one] |
| 101 |  | Cc1cc(-c2ccc(OCC3CN(C(=O)c4cc5c(cc4F)OCC(=O)N5)C3)c(F)c2)ccn1 [Example 264, 7-fluoro-6-((3-((2-fluoro-4-(2-methylpyridin-4-yl)phenoxy)methyl)azetidin-1-yl)carbonyl)-2H-1,4-benzoxazin-3(4H)-one] |
| 92 |  | Cc1nc2cc(OCC3CN(C(=O)c4cc5c(cc4F)OCC(=O)N5)C3)ccc2s1 [Example 151, 7-fluoro-6-((3-(((2-methyl-1,3-benzothiazol-5-yl)oxy)methyl)azetidin-1-yl)carbonyl)-2H-1,4-benzoxazin-3(4H)-one] |
| 100 |  | O=C1COc2cc(F)c(C(=O)N3CCC(COc4ccc(Cl)nc4Cl)CC3)cc2N1 [Example 71, 6-((4-(((2,6-dichloropyridin-3-yl)oxy)methyl)piperidin-1-yl)carbonyl)-7-fluoro-2H-1,4-benzoxazin-3(4H)-one] |
|  | 102 | CC(Oc1ccc(F)cc1F)C1CN(C(=O)c2cc3c(cc2F)OCC(=O)N3)C1 (stereo not drawn) [Example 300, 6-((3-(1-(2,4-difluorophenoxy)ethyl)azetidin-1-yl)carbonyl)-7-fluoro-2H-1,4-benzoxazin-3(4H)-one] |
| 100 |  | O=C1COc2cc(F)c(C(=O)N3CCC(COc4cccc(-c5ccccc5)c4)CC3)cc2N1 [Example 150, 6-((4-((biphenyl-3-yloxy)methyl)piperidin-1-yl)carbonyl)-7-fluoro-2H-1,4-benzoxazin-3(4H)-one] |
| 100 |  | Cc1cc(OCC2CN(C(=O)c3cc4c(cc3F)OCC(=O)N4)C2)ccc1Cl [Example 184, 6-((3-((4-chloro-3-methylphenoxy)methyl)azetidin-1-yl)carbonyl)-7-fluoro-2H-1,4-benzoxazin-3(4H)-one] |
